Entries after “also recorded” stand apart in the source; their conditions may differ. Square brackets hold non-standard residues; d marks the D form. Peptide text beside a SMILES is read from it. pY = N[C@@H](Cc1ccc(OP(=O)(O)O)cc1)C(=O)O; Hyp = O=C(O)[C@@H]1C[C@@H](O)CN1; Tic = O=C(O)[C@@H]1Cc2ccccc2CN1; Tle = CC(C)(C)[C@H](N)C(=O)O
Target: T1, dipeptidyl peptidase IV from porcine kidney (Sus scrofa, UniProt P22411)
T1 construct: dipeptidyl peptidase IV from porcine kidney; from tissue; host or cells: porcine kidney
T1 sequence (P22411 whole entry): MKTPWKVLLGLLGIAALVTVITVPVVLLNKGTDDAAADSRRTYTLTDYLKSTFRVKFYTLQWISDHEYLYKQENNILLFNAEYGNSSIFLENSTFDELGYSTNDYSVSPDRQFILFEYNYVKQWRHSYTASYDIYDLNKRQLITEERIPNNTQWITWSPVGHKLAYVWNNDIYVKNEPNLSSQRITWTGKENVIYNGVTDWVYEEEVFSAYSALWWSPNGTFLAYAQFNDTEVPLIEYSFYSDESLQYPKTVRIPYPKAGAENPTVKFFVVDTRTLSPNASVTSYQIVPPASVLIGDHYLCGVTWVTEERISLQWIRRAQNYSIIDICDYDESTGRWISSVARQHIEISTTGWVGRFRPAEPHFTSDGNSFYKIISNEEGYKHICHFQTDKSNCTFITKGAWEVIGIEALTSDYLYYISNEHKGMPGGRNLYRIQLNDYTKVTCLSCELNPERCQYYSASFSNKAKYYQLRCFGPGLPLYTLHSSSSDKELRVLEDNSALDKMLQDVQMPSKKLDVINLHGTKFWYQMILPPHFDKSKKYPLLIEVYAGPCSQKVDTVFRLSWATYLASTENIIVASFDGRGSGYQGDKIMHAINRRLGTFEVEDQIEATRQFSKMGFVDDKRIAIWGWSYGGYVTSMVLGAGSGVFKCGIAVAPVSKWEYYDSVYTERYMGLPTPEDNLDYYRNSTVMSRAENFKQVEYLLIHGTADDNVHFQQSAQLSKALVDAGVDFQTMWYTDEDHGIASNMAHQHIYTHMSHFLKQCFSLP
Experiment: Ki determination, DPIV inhibition (glycylprolyl-4-nitroaniline)
Type: biochemical
Conditions: HEPES pH7.6, 30° C.

Molecule	Ki
CC(=O)C1CCCN1C(=O)C(N)C(C)C (stereo not drawn) [Val-Pro-methyl ketone]	0.0476 µM
CC(C)C(N)C(=O)C1CCCC1 (stereo not shown) [Val-cyclopentyl ketone]	13.1 µM
CC(C)(C)C(N)C(=O)C1CCCCC1 (stereo not shown) [t-butyl-Gly-cyclohexyl ketone]	273 µM
H-Glu(PEG)-Thia	3.11 µM
Val-Pro-acyloxy methyl ketone	0.00105 µM
Val-Pro-benzothiazol methyl ketone	0.0373 µM
Val-Pro-benzoyl methyl ketone	0.000536 µM

Tested on: PepT1
Experiment: Transport at PepT1-expressing oocytes of X. leavis, two-electrode voltage clamp
Type: cell-based
Conditions: not given
Text: (§1) Side chain-modified glutamyl thiazolidines having a structure H-Glu(X)-Thia were synthesised, with polyethylene glycol or glycine oligomers of various chain lengths being used as X (see Method A of example for description of synthesis). The binding characteristics of those derivatives and their transportability by the peptide transporter PepT1 were investigated.

Molecule	Imax, inward currents generated by the transport
CCC(C)C(N)C(=O)N1CCSC1 (stereo not shown) [H-Ile-Thia]	25 ± 8 nA

Target: T2, plasma DPIV activity (Rattus norvegicus, UniProt P14740)
T2 construct: determination of plasma DPIV activity consisted of 80 μl reagent and 20 μl plasma sample; from tissue; host or cells: plasma of Wistar rats after i.v. or p.o. dosing
T2 sequence (P14740 37-767 limits assumed): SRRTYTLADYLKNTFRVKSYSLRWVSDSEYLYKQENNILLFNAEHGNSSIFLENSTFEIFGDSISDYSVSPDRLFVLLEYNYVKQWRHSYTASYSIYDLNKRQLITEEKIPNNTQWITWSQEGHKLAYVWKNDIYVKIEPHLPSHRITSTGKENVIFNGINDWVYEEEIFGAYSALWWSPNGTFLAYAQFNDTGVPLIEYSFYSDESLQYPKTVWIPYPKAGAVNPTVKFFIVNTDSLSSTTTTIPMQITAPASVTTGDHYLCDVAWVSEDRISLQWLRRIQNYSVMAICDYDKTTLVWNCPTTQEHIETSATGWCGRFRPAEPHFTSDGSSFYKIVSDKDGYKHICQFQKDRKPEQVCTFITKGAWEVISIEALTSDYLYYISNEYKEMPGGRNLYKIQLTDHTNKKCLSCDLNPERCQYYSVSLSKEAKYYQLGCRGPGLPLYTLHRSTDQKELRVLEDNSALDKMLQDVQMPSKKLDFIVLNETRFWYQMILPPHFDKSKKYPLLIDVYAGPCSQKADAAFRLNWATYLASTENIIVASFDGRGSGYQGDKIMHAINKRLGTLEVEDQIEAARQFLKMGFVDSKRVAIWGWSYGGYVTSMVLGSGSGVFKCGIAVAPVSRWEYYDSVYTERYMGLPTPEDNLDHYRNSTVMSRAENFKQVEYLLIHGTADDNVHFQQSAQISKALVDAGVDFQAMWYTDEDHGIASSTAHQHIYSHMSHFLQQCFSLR
Experiment: DPIV inhibiting activity after intravasal and oral administration to Wistar rats
Type: in vivo
Conditions: 100 mg/kg, intra-vasal (intra-arterial)
Description: Male Wistar rats (Shoe: Wist(Sho)) with a body weight ranging between 250 and 350 g were purchased from Tierzucht Schönwalde (Schönwalde, Germany).
After overnight fasting, 100 μl samples of heparinised arterial blood were collected at −30, −5, and 0 min. […] In the case of oral administration, an additional volume of 1 ml saline was injected into the arterial catheter. In the case of intra-arterial administration, the catheter was immediately flushed with 30 μl saline and an additional 1 ml of saline was given orally via the feeding tube.
All blood samples were collected into ice cooled Eppendorf tubes (Eppendorf-Netheler-Hinz, Hamburg, Germany) filled with 10 μl 1M sodium citrate buffer (pH 3.0) for plasma DPIV activity measurement. Eppendorf tubes were centrifuged immediately (12000 rpm for 2 min, Hettich Zentrifuge EBA 12, Tuttlingen; Germany): The plasma fractions were stored on ice until analysis or were frozen at −20° C. until analysis. All plasma samples were labelled with the following data: • Code number • Animal Number • Date of sampling • Time of sampling Analytical Methods
The assay mixture for determination of plasma DPIV activity consisted of 80 μl reagent and 20 μl plasma sample. […] The DPIV activity was expressed in mU/ml.

Molecule	In vivo DPIV-inhibition at tmax, i.v. (%)
Br.CC(=O)OCC(=O)[C@@H]1CCCN1C(=O)[C@@H](NC(=O)[C@H](C)N)C(C)C [Ala-Val-Pro-acyloxy methyl ketone, H-Ala-Val-Pro-CH2O—C(O)CH3.HBr]	89%
Br.CC(C)[C@H](NC(=O)[C@H](C)N)C(=O)N1CCC[C@H]1C(=O)COC(=O)c1ccccc1 [Ala-Val-Pro-benzoyl-methyl ketone, H-Ala-Val-Pro-CH2O—C(O)Ph.HBr]	97%

Same assay, conditions: 100 mg/kg, oral

Molecule	In vivo DPIV-inhibition at tmax, p.o. (%)
Br.CC(=O)OCC(=O)[C@@H]1CCCN1C(=O)[C@@H](NC(=O)[C@H](C)N)C(C)C [Ala-Val-Pro-acyloxy methyl ketone, H-Ala-Val-Pro-CH2O—C(O)CH3.HBr]	86%
Br.CC(C)[C@H](NC(=O)[C@H](C)N)C(=O)N1CCC[C@H]1C(=O)COC(=O)c1ccccc1 [Ala-Val-Pro-benzoyl-methyl ketone, H-Ala-Val-Pro-CH2O—C(O)Ph.HBr]	76%
CC[C@H](C)[C@H](NC(=O)[C@@H]1CCCN1C(=O)[C@@H](N)Cc1ccc(OP(=O)(O)O)cc1)C(=O)O [Tyr(P)-Pro-Ile] (H-[pY]-Pro-Ile-OH; N-terminus and C-terminus assumed)	no inhibition

Target: purified porcine DPIV (Sus scrofa, UniProt P22411)
Sequence (P22411 whole entry): as the sequence (P22411 whole entry) above
Experiment: Determination of IC50 values, DPIV (Gly-Pro-pNA)
Type: biochemical
Conditions: Gly-Pro-pNA 0.4 mM, HEPES pH7.6, 30° C.
Description: 100 μl inhibitor stock solution were mixed with 100 μl buffer (HEPES pH7.6) and 50 μl substrate (Gly-Pro-pNA, final concentration 0.4 mM) and preincubated at 30° C. Reaction was started by addition of 20 μl purified porcine DPIV. Formation of the product pNA was measured at 405 nm over 10 min using the HTS 7000Plus plate reader (Perkin Elmer) and slopes were calculated. The final inhibitor concentrations ranged between 1 mM and 30 nM. For calculation of IC50 GraFit 4.0.13 (Erithacus Software) was used.

Molecule	IC50
CC[C@H](C)[C@H](N)C(=O)N1C[C@H](O)C[C@H]1C(=O)N[C@H](C(=O)O)[C@@H](C)CC [Ile-Hyp-Ile] (H-Ile-[Hyp]-Ile-OH; N-terminus and C-terminus assumed)	6000 µM
CCC(C)C(N)C(=O)C1CCCC1 (stereo not shown) [Ile-cyclopentyl ketone, 1-cyclopentyl-3-methyl-1-oxo-2-pentanaminium chloride]	38.2 µM
CC[C@H](C)[C@H](NC(=O)[C@@H]1CCCN1C(=O)[C@@H]1Cc2ccccc2CN1)C(=O)O [Tic-Pro-Ile] (H-[Tic]-Pro-Ile-OH; N-terminus and C-terminus assumed)	1000 µM
CC[C@H](C)[C@H](NC(=O)[C@@H]1CCCN1C(=O)[C@@H](N)Cc1ccc(OP(=O)(O)O)cc1)C(=O)O [Tyr(P)-Pro-Ile] (H-[pY]-Pro-Ile-OH; N-terminus and C-terminus assumed)	2000 µM
CC(=O)C1CCCN1C(=O)C(N)C(C)C (stereo not drawn) [Val-Pro-methyl ketone]	0.579 µM
CC(C)[C@H](N)C(=O)N1CCC[C@H]1C(=O)N[C@H](C(=O)O)C(C)(C)C [Val-Pro-t-butyl-Gly] (H-Val-Pro-[Tle]-OH; N-terminus and C-terminus assumed)	67.5 µM
CC(C)C(N)C(=O)C1CCCC1 (stereo not shown) [Val-cyclopentyl ketone]	49 µM
CC(C)(C)C(N)C(=O)C1CCCCC1 (stereo not shown) [t-butyl-Gly-cyclohexyl ketone]	273 µM
Val-Pro-acyloxy methyl ketone	0.0102 µM
Val-Pro-benzothiazol methyl ketone	0.138 µM
Val-Pro-benzoyl methyl ketone	0.0179 µM
Val-cyclohexyl ketone	1000 µM

Tested on: MADB106 tumor cells
Experiment: In vivo cancer cell adhesion assay (CFSE labeled cells in lungs)
Design: species or system F344 rats
Conditions: wild-type F344USA rats, single injection i.v. + i.p., 30 min after inoculation, vs. saline; fumarate
Description: Cell culture, injection of tumor cells, dissection of the animals and immunohistochemistry were conducted as previously described (von Hörsten et al., 2000). In brief, 1×10^6 MADB106 tumor cells derived from log phase of tumor growth were injected via the lateral tail vein and lungs removed at different time points thereafter. For in situ quantification of tumor cells at early time points after injection (30 min), cells were vital dye stained using the fluorescein derivate 5- (and -6)-carboxyfluorescein diacetate succinimidyl ester (CFSE) before injection.
Control sections were included in which one or both primary antibodies were omitted.
Vital dye (Carboxyfluorescein; CFSE) labeling of MADB106 tumor cells allows the quantification of tumor cells and NK cells in thick sections of lung tissue by stereology in situ (von Hörsten et al, 2000). In the present study we produced thin sections (8 μm) of the same lungs (n=10) and performed additional microscopic counting by image analysis of DE1 positive cells. This was done to further simplify the previously validated stereological quantification technique. Therefore, in the present study, the assessment of DE1 positive tumor cells in lung tissue from different substrains 30 min after tumor inoculation was carried out using image analysis approach. […] Each right upper lobe of the lungs was sectioned at 6 randomly chosen non-adjacent levels. From each level, three sections were evaluated.

Molecule	tumor cell adhesion, CFSE positive cells in lung tissue
CC(C)[C@H](N)C(=O)N1CCCC1.O=C(O)/C=C/C(=O)O [valyl pyrrolidine fumarate]	no significant effect; also recorded: significant differences vs. saline treated controls were not found

Target: T3, PepT1 (Oryctolagus cuniculus, UniProt P36836)
T3 construct: expressed in transfected cells; host or cells: Pichia pastoris cells expressing PepT1 (per the assay description)
T3 sequence (P36836 1-707): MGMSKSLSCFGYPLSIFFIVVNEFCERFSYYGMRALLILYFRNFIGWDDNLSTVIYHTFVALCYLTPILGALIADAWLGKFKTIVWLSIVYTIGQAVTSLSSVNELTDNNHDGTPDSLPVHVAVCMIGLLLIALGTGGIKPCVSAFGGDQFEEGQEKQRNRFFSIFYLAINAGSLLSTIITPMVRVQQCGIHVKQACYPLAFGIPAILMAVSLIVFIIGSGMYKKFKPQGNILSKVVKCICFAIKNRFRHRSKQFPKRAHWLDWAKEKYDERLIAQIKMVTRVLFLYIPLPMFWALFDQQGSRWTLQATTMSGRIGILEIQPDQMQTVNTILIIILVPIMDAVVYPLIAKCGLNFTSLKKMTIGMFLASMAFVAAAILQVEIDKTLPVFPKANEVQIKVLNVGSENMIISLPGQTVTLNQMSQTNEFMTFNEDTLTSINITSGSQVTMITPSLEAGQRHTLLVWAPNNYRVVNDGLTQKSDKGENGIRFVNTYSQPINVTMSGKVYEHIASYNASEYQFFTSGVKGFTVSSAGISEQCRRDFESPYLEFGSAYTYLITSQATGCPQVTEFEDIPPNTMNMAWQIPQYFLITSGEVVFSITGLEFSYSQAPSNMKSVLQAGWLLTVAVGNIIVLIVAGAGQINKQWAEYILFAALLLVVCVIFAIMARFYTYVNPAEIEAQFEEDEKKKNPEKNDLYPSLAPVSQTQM
Experiment: Inhibition of 3H-D-Phe-Ala binding to PepT1-expressing P. pastoris cells
Conditions: not given
Text: as §1

Molecule	EC50
CCC(C)C(N)C(=O)N1CCSC1 (stereo not shown) [H-Ile-Thia]	980 µM

Same assay, conditions: read-out: EC50, concentration inhibiting binding of 3H-D-Phe-Ala to PepT1-expressing P. pastoris cells by 50%

Molecule	EC50
H-Glu(PEG)-Thia	> 10000 µM
